Legend:
[1] = Slurry and solvent evaporation polymorph experiments of Compound A citrate salt (Table 9); assay type: physicochemical
Protocol: Based on the approximate solubility data of Compound A citrate salt, 18 polymorph experiments were started at RT with stirring (Table 9). Wet cakes from the slurry experiments were analyzed after 5 days of stirring. Wet cake XRPD patterns were checked and materials showing no pattern change were heated from RT to 50° C.
Procedure • 1) Slurry at RT: ˜35 mg citrate salt was slurried in different solvents in 4 mL vials using a magnetic stirrer at RT. The solids in slurry were characterized by XRPD after 3-5 days. • 2) Slurry at 50° C.: Slurries with no change in wet cake XRPD pattern when compared to starting material were heated from RT to 50° C. Samples were analyzed after 2-3 days of stirring.
Wet cake samples were isolated and kept at 25° C. for 2 h for drying. After drying, samples were analyzed by XRPD.

[2] = Dynamic vapor sorption (DVS) at 25° C. and RH up to 90%; assay type: physicochemical
Protocol: FIG. 4 depicts a DVS of Compound A monocitrate monohydrate Form A salt at 25° C. and RH up to 90%.

[3] = Plasma pharmacokinetics of compound A after twice daily dosing; assay type: in vivo
[4] = Aqueous solubility of Compound A salts; assay type: physicochemical
Protocol: Solubility of Compound A citrate was determined in 3 different types of matrices: unbuffered water, citrate-buffered solutions from pH 3 to 6, and formulations consisting of citrate, advantame, methylparaben sodium, potassium sorbate, and sodium chloride at pH ranging from 3 to 6. Solubility in unbuffered water at ambient temperature was 38.5 mg/mL.
The target pH was reassessed when the F3 formulation was developed. Compound A citrate solubility studies were performed initially in simple buffered solutions to assess solubility trends as a function of pH. […] The target concentration of Compound A was therefore changed to 40 mg/mL as a compromise between drug substance and preservatives dissolution rate and stability.

[5] = Excipient compatibility study with Compound A sesquifumarate; assay type: physicochemical; conditions: for Change in appearance, XRPD or DSC: 8 weeks 25° C./60% RH or 4 weeks 40° C./75% RH
Description: The first activity in developing a tablet formulation was selection of excipients. The main purpose of the excipient compatibility study was to evaluate changes in related substances, specifically Impurity A (relative retention time [RRT]˜0.98). […] However, formation of this degradant is not possible in product containing Compound A citrate, as it is formed by reaction of the sesquifumarate drug substance with the double bond in fumaric acid. A secondary purpose of the compatibility study was to assess changes in Compound A assay and physical properties. Even though formation of Impurity A is not possible for Compound A citrate, chemical and physical results of this study were still used to guide tablet excipient selection.
Common excipients were evaluated as part of the excipient compatibility study. Samples were incubated at 25° C./60% RH long-term condition as well as a 40° C./75% RH accelerated condition. Individual vials were removed for analysis at 0, 4, and 8 weeks. Samples were tested for appearance, Compound A sesquifumarate assay and related substances, X-ray powder diffraction (XRPD), and differential scanning calorimetry (DSC) at T-0 and 4 weeks for both long-term and accelerated conditions, and 8 weeks for the long-term condition. At 8 weeks, the accelerated condition samples were tested for Compound A sesquifumarate assay and related substances only. Assay and related substances were tested by reversed-phase ultra-performance liquid chromatography (RP-UPLC), with adjusted sample preparation to accommodate small sample amounts. Vials of Compound A sesquifumarate alone were used as controls.

[6] = Solution stability studies at accelerated conditions, counterion adduct (Impurity A); assay type: physicochemical; conditions: fumarate reacts with the pyrimidine ring; in solution and solid API
Description: Compound A monocitrate monohydrate has at least two advantageously and unexpected characteristics. […] Second, in the manufacturing process, Compound A fumarate requires a separate slurrying step which results in a solvate with an organic solvent. Compound A monocitrate monohydrate salt is isolated directly from ethanol:water, no slurrying step is required. […] Additionally, the Compound A monocitrate forms a monohydrate instead of a solvate with one or more organic molecules.
Although this degradation pathway is more accelerated in solution it was also observed in the solid API. Formation of Impurity A was the reason why Compound A sesquifumarate API and drug product were stored at refrigerated temperatures.

[7] = Solution stability of Compound A sesquifumarate at 25° C. and 40° C.; assay type: physicochemical; conditions: for Appearance / Compound A Sesquifumarate Purity (Average % area) / Impurity A (Average % area) / pH: 50 mg/mL formulation
Protocol: The initial F1 and F2 formulations utilized Compound A sesquifumarate. The pH stability of Compound A sesquifumarate solutions was studied in water at pH 5.0, 5.5, and 6.0 over 4 weeks at 25° C. and 40° C. The desired concentration of 50 mg/mL was soluble at all pH values, although Compound A dissolution occurred more rapidly at lower pH. There was a single major degradant, designated as Impurity A (relative retention time [RRT]˜0.98).
Stability of formulations containing Compound A sesquifumarate was studied at 50 mg/mL in a formulation consisting of 0.07% advantame, 20 mM citrate, 1% grape flavor (FONA), 1% sodium chloride, and 0.02% propyl paraben at pH 6.5. Stability was measured over 4 weeks in glass vials at the accelerated condition of 25° C. Stability of the same formulation but at […] was also studied at the supra-accelerated condition of 40° C. These studies were conducted prior to preservative effectiveness testing and therefore used propyl paraben instead of the methylparaben sodium:potassium sorbate combination used in the final formulation.

[8] = about 163 mg twice daily in combination with a CYP3A4 inhibitor (e.g., a strong CYP3A4 inhibitor)

With `CCN(C(=O)c1cc(F)ccc1Oc1cncnc1N1CC2(CCN(C[C@H]3CC[C@H](NS(=O)(=O)CC)CC3)CC2)C1)C(C)C.O.O=C(O)CC(O)(CC(=O)O)C(=O)O` the Form ([1]; 1,4-dioxane/H2O (7:3), solvent evaporation) was “Form A (FIG. 19)”, the Form ([1]; Propanol/H2O (7:3), solvent evaporation) was “Form A (FIG. 19)” and the Form ([1]; THF/H2O (7:3), solvent evaporation) was “Amorphous (FIG. 19)”. The Form ([1]; slurry, 1,4-dioxane/H2O (7:3)) was “Form A (FIG. 18)”, the Form ([1]; slurry, 2-Me-THF, starting material a 1:1 mixture (footnote)) was “Form A (FIG. 18)” and the Form ([1]; slurry, Acetone/H2O (7:3)) was “Form A (FIG. 18)”. The Form ([1]; slurry, DCM) was “Form A (FIG. 17)”, the Form ([1]; slurry, EtOAc) was “Form A (FIG. 17)” and the Form ([1]; slurry, H2O) was “Form A (FIG. 18)”. For the same compound, the Form ([1]; slurry, IPAc) was “Form A (FIG. 18)”, the Form ([1]; slurry, MEK) was “Form A (FIG. 17)” and the Form ([1]; slurry, MTBE) was “Form A (FIG. 18)”. For the same compound, the Form ([1]; slurry, MeCN) was “Form C (FIG. 14)”, the Form ([1]; slurry, MeOH or EtOH, after air dry) was “dry→Form A (FIG. 16)” and the Form ([1]; slurry, MeOH or EtOH, wet cake) was “Form B (Wet cake)→ air”. The Form ([1]; slurry, Propanol/H2O (7:3)) was “Form A (FIG. 18)”, the Form ([1]; slurry, THF) was “Form A (FIG. 17)” and the Form ([1]; slurry, Toluene) was “Form A (FIG. 17)”. The “water absorbed (DVS)” value ([2]; 25° C., from 0% to 90% relative humidity) was “about 1.9%”, the hygroscopicity ([2]; DVS at 25° C. and RH up to 90%) was “not hygroscopic” and the “area under plasma concentration versus time curve from time 0 to 12 hours (AUC(0-12h)) of compound A” value [3, 8] was “about 22610 ng·h/mL”. The “maximum plasma concentration (Cmax) of compound A” value [3, 8] was “about 3220 ng/mL”, the “area under plasma concentration versus time curve from time 0 to 12 hours (AUC(0-12h)) of compound A” value ([3]; about 276 mg twice daily) was “about 10150 ng·h/mL” and the “maximum plasma concentration (Cmax) of compound A” value ([3]; about 276 mg twice daily) was “about 2052 ng/mL”.

In the case of `CCN(C(=O)c1cc(F)ccc1Oc1cncnc1N1CC2(CCN(C[C@H]3CC[C@H](NS(=O)(=O)CC)CC3)CC2)C1)C(C)C.CCN(C(=O)c1cc(F)ccc1Oc1cncnc1N1CC2(CCN(C[C@H]3CC[C@H](NS(=O)(=O)CC)CC3)CC2)C1)C(C)C.O=C(O)/C=C/C(=O)O.O=C(O)/C=C/C(=O)O.O=C(O)/C=C/C(=O)O` [Compound A sesquifumarate], the “Biopharmaceutical Classification System solubility definition” value [4] is reported as “highly soluble”, the pH of solution ([4]; 50 mg/mL Compound A solution in water) is reported as “approximately 3.5” and the “Change in appearance, XRPD or DSC” value ([5]; binary mixtures with five fillers) is reported as “No change”. For the same compound, the “Impurity A” value ([5]; control sample and filler mixtures) was “increased in both control sample and excipient mixtures”, the “Trends in assay or related substances” value ([5]; four disintegrants) was “No trends” and the “Change in appearance, XRPD or DSC” value ([5]; four disintegrants) was “No change”. The “Trends in assay or related substances” value ([5]; glidant and lubricants) was “No trends”, the “Change in appearance, XRPD or DSC” value ([5]; glidant and lubricants) was “No change” and the “Trends in assay or related substances” value ([5]; three binders) was “No trends”. For the same compound, the “Change in appearance, XRPD or DSC” value ([5]; three binders) was “No change”, the “Trends in assay or related substances” value ([5]; two alkalizers) was “No trends” and the “Change in appearance, XRPD or DSC” value ([5]; two alkalizers) was “No change”. For the same compound, the “Impurity A formation” value ([5]; with Avicel PH 101, Avicel PH113, Avicel DG) was “did not increase formation of Impurity A”, the “Impurity A formation” value ([5]; with polyols mannitol and sorbitol) was “accelerate the degradant formation” and the “Chemical degradation forming impurity A” value [6] was “subject to a chemical degradation”. For the same compound, the Appearance ([7]; 25° C., 1 week) was “Clear”, the “Compound A Sesquifumarate Purity (Average % area)” value ([7]; 25° C., 1 week) was 99.77 % area and the “Impurity A (Average % area)” value ([7]; 25° C., 1 week) was 0.14 % area. For the same compound, the pH ([7]; 25° C., 1 week) was 6.6, the Appearance ([7]; 25° C., 2 weeks) was “Clear” and the “Compound A Sesquifumarate Purity (Average % area)” value ([7]; 25° C., 2 weeks) was 99.78 % area. The “Impurity A (Average % area)” value ([7]; 25° C., 2 weeks) was 0.13 % area, the pH ([7]; 25° C., 2 weeks) was 6.6 and the Appearance ([7]; 25° C., 4 weeks) was “Clear”. For the same compound, the “Compound A Sesquifumarate Purity (Average % area)” value ([7]; 25° C., 4 weeks) was 99.78 % area, the “Impurity A (Average % area)” value ([7]; 25° C., 4 weeks) was 0.14 % area and the pH ([7]; 25° C., 4 weeks) was 6.6. For the same compound, the Appearance ([7]; 25° C., time 0) was “Clear”, the “Compound A Sesquifumarate Purity (Average % area)” value ([7]; 25° C., time 0) was 99.78 % area and the “Impurity A (Average % area)” value ([7]; 25° C., time 0) was 0.14 % area. The pH ([7]; 25° C., time 0) was 6.5, the Appearance ([7]; 40° C., 1 week) was “Clear” and the “Compound A Sesquifumarate Purity (Average % area)” value ([7]; 40° C., 1 week) was 99.75 % area. The “Impurity A (Average % area)” value ([7]; 40° C., 1 week) was 0.17 % area, the pH ([7]; 40° C., 1 week) was 6.2 and the Appearance ([7]; 40° C., 2 weeks) was “Clear”. For the same compound, the “Compound A Sesquifumarate Purity (Average % area)” value ([7]; 40° C., 2 weeks) was 99.68 % area, the “Impurity A (Average % area)” value ([7]; 40° C., 2 weeks) was 0.24 % area and the pH ([7]; 40° C., 2 weeks) was 6.2. For the same compound, the Appearance ([7]; 40° C., 4 weeks) was “Clear”, the “Compound A Sesquifumarate Purity (Average % area)” value ([7]; 40° C., 4 weeks) was 99.58 % area and the “Impurity A (Average % area)” value ([7]; 40° C., 4 weeks) was 0.34 % area. The pH ([7]; 40° C., 4 weeks) was 6.3, the Appearance ([7]; 40° C., time 0) was “Clear” and the “Compound A Sesquifumarate Purity (Average % area)” value ([7]; 40° C., time 0) was 99.77 % area. For the same compound, the “Impurity A (Average % area)” value ([7]; 40° C., time 0) was 0.14 % area, the pH ([7]; 40° C., time 0) was 6.2 and the “Impurity A formation” value ([7]; water at pH 5.0, 5.5, 6.0, 4 weeks, 25° C. and 40° C.) was “increased in a temperature- and time-dependent manner”. The solubility ([7]; water at pH 5.0, 5.5 and 6.0) was at least 50 mg/mL.
